Earlier results as cited in US20240315301A1, “Composition for Improving Vision” (ALGAE HEALTH SCIENCES CO., LTD., priority 2021, published 2024).

Conditions: fold more than vitamin E

For `CC1=C(/C=C/C(C)=C/C=C/C(C)=C/C=C/C=C(C)/C=C/C=C(C)/C=C/C2=C(C)C(=O)C(O)CC2(C)C)C(C)(C)CC(O)C1=O` (stereo not drawn) [Astaxanthin, 3, 3′-dihydroxy-β, β-carotene-4, 4′-dione], the “antioxidant activity relative to vitamin E (VE)” value is listed as 1000 times.
